“And” between values parts separate entries of the source, which are not always exact repeats. Equal values may be shown once.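 Assay format: 96-well plates, 48-hour exposure. GI50 marks 50% less growth. TGI marks complete inhibition of growth.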
Columns and labels:
Test in all cases: NCI-60 cell line screen, 48 h
[1] = system: ACHN renal
[2] = system: COLO 205 colon
[3] = system: HCT-15 colon
[4] = system: HOP-92 NSCLC
[5] = system: IGROV1 ovarian
[6] = system: MOLT-4 leukemia
[7] = system: OVCAR-4 ovarian
[8] = system: RPMI-8226 leukemia
[9] = system: SNB-19 CNS
[10] = system: SNB-75 CNS

SMILES | GI50 [1] | TGI [1] | GI50 [2] | TGI [2] | GI50 [3] | TGI [3] | GI50 [4] | TGI [4] | GI50 [5] | TGI [5] | GI50 [6] | GI50 [7] | TGI [7] | GI50 [8] | TGI [8] | GI50 [9] | TGI [9] | GI50 [10] | TGI [10] | TGI [6]
CNC(=O)c1cc(Oc2ccc(NC(=O)Nc3ccc(Cl)c(C(F)(F)F)c3)cc2)ccn1 | 3.22 µM and 3.45 µM and 2.64 µM | > 10 µM and 12 µM and 12.1 µM | 2.57 µM and 2.9 µM and 2.33 µM | 8.46 µM and 7.66 µM and 6.26 µM | 2.76 µM and 3.18 µM and 2.65 µM | > 10 µM and 12.3 µM and 9.84 µM | 1.65 µM and 1.43 µM and 1.75 µM | 5.62 µM and 5.12 µM and 6.38 µM | 3.52 µM and 3.44 µM and 2.6 µM | > 10 µM and 15.3 µM and 9.14 µM | 2.38 µM and 3.15 µM and 2.87 µM | 3.07 µM and 3.67 µM and 3.42 µM | > 10 µM and 11.5 µM and 22.2 µM | 1.5 µM and 2.37 µM and 1.74 µM | 6.25 µM and 6.93 µM and 6.04 µM | 4.75 µM and 4.38 µM and 3.47 µM | > 10 µM and 17.7 µM and 11.8 µM | 1.86 µM and 2.65 µM and 2.73 µM | > 10 µM and 8.98 µM and 8.78 µM | 
O=C(COc1ccc(Cl)cc1Cl)NNc1ccc([N+](=O)[O-])cc1 | 51.5 µM | > 100 µM | 95.7 µM | > 100 µM | > 100 µM | > 100 µM | 12.1 µM | 31.7 µM | 36 µM | > 100 µM | 81.6 µM | > 100 µM | > 100 µM | > 100 µM | > 100 µM | 25 µM | 95.6 µM | 15.3 µM | 33.7 µM | > 100 µM
CCC(/C(=N/NC(=O)C[N+](C)(C)C)c1ccccc1)C1OC(=O)c2ccccc21 (centres undefined) |  | > 100 µM |  | > 100 µM |  | > 100 µM |  | > 100 µM |  | > 100 µM |  |  | > 100 µM |  | > 100 µM |  | > 100 µM |  | > 100 µM | > 100 µM
O=C(Nc1ccn(C2CCC(COC(c3ccccc3)(c3ccccc3)c3ccccc3)O2)c(=O)n1)c1ccccc1 (centres undefined) |  | 9.74 µM |  | 4.2 µM |  | 11.2 µM |  | 4.74 µM |  | 13.4 µM |  |  | 7.71 µM |  | 5.21 µM |  | 14.8 µM |  | 8.35 µM | 5.16 µM
Cn1cc(-c2[nH]c3cc(NC(=O)[C@H](N)C4CCCCC4)cc4c3c2C=NNC4=O)cn1 | 0.419 µM and 1.06 µM | 8.35 µM and > 10 µM | 0.922 µM and 0.632 µM | 3.6 µM and > 6.26 µM | 12 µM and 5.1 µM | > 72 µM | 0.0783 µM and 0.2 µM | 0.821 µM and > 4.52 µM | 0.603 µM and 0.367 µM | 14.3 µM and > 10 µM | 0.287 µM and 0.334 µM | 0.184 µM and 0.217 µM | 10.5 µM and > 10 µM | 3.18 µM and 3.24 µM | 11.5 µM and > 10 µM | 0.65 µM and 0.47 µM | 19.7 µM and > 10 µM | 0.339 µM and 0.311 µM | 1.88 µM and 1.84 µM | 0.797 µM and > 6.55 µM
c1ccc2c(c1)CCCc1nnc3nc4ccccc4n3c1-2 | 3.65 µM | > 100 µM | 4.78 µM | > 100 µM | 3.27 µM | > 100 µM | 9.53 µM | > 100 µM | 2.88 µM | > 100 µM | 4.49 µM | 3.98 µM | > 100 µM | 2.96 µM | 29.1 µM | 7.5 µM | > 100 µM | 23 µM | > 100 µM | > 100 µM
Cc1ccccc1N=C(c1ccccc1)C1C(=O)c2ccccc2C1=O | 19 µM | 62.4 µM | 13.8 µM | 38.5 µM | 11.3 µM | 73 µM | 14.4 µM | 53.8 µM | 10.7 µM | 39.4 µM | 9.98 µM | 20.4 µM | > 100 µM | 4.27 µM | 27 µM | 20.8 µM | > 100 µM | 23.4 µM | > 100 µM | 35.7 µM
COc1ccc(/C=C2\CCC(C)(CN(C)C)C2=O)cc1Br (centres undefined) |  | > 62.6 µM |  | 34.4 µM |  | 32.2 µM |  | > 85.8 µM |  | 40.2 µM |  |  | 35.9 µM |  | 58.4 µM |  | 47.8 µM |  | 76.3 µM | 58 µM
COc1ccc2c(c1)C(=O)CC(C(N)=O)C2 (centres undefined) |  | > 100 µM |  | > 100 µM |  | > 100 µM |  | > 100 µM |  | > 100 µM |  |  | > 100 µM |  | > 100 µM |  | > 100 µM |  | > 100 µM | > 100 µM
O=C(NNC(=O)/C(=C/c1cccc([N+](=O)[O-])c1)NC(=O)c1ccccc1)Nc1ccc(Cl)cc1 |  | 31.8 µM |  | 26.8 µM |  | 24.7 µM |  | 40.4 µM |  | 27.4 µM |  |  | 26.9 µM |  | 38.9 µM |  | 30.8 µM |  | 36 µM | 25.2 µM

Reference: PubChem BioAssay (NCI)
